Measurements reported in PMC5085131, “Cyclic AMP efflux inhibitors as potential therapeutic agents for leukemia” (Oncotarget, 2016).

Key:
U937 cells = test: F-cAMP efflux assay in U937 cells (screen and dose response); format: cell-based, human; conditions: screen at 10 μM, 51 hits retested in dose-response
Experimental: Cells were loaded with F-cAMP as described. Briefly, cells were resuspended in a hypertonic solution containing 10% polyethylene glycol 1000, 0.5 M sucrose, and 250 μM F-cAMP in cRPMI without FBS, incubated 10 min at room temperature, washed, and then resuspended in hypotonic solution (60% cRPMI, 40% sterile water) for 2 min at room temperature to complete F-cAMP loading. Cells were resuspended in cRPMI and equilibrated for 2 h under normal culture conditions.
Samples were evaluated using Accuri C6 or BD FACScan flow cytometers (Becton Dickinson (BD)).
Liquid handling was accomplished with a Biomek FX Multichannel system (Beckman-Coulter, Fullerton, CA, USA) and/or Biotek Multiflo system (Winooski, VT, USA). F-cAMP-loaded U937 cells (2000/well) were seeded into 384-well polypropylene plates (Greiner Bio-One 784201, Monroe, NC, USA). Cells were treated with compounds (10 μM final concentration) from the Prestwick Chemical Library (Illkirch, France) or […] Collection (MicroSource, Gaylordsville, CT, USA) delivered by pintool (V&P Scientific, San Diego, CA), at a final DMSO concentration of 1%. Plates were foil-sealed with AlumaSeal 384™ (Excel Scientific, Victorville, CA, USA), and incubated inverted overnight. Sample plates were analyzed by CyAn flow cytometers (Beckman-Coulter) configured with HyperCyt high-throughput auto-sampler systems (IntelliCyt, Albuquerque, NM, USA) using 488 nm excitation to assess FL-1 (530/40) MFI levels.
Data were analyzed with HyperView software (IntelliCyt) and time-gated to determine data from each well. Wells with ≥ 50 events were evaluated for FL-1 MFI values. Samples with MFI values ≥ 2 standard deviations above the plate mean negative control values were considered “hit” compounds.
To validate sample data and decrease the number of false-positive hits, compounds were assayed in a high-throughput dose response assay. Plates were set up as in the HTS, with the exception that the plate formats contained 10-well dose responses for each hit compound, at final concentrations ranging from 30 μM to 4 nM.
The dose response data were normalized for percent response based on sample FL-1 MFI values in comparison to untreated F-cAMP-loaded cells kept at 4°C overnight or at time = 0, and were fitted by GraphPad Prism 5 software (GraphPad Software, La Jolla, CA, USA) for sigmoidal dose response with constrained hill slope = 1.

[1] = test system: CREB (Ser133) / ATF-1 (Ser63) phosphorylation; test: Binding of anti-phospho-CREB/ATF-1 antibody in U937 cells (flow cytometry); format: cell-based, human; conditions: 1 hour, 20 μM
Experimental: Cells were suspended at 10^6 cells/ml in cRPMI and incubated for 1 hour at 37°C with 20 μM ICE compounds or forskolin (positive control). Negative control samples were treated with DMSO at equal volume. Cells were fixed with 20x volume of pre-warmed 1x solution BD Phosflow^TM Lyse/Fix Buffer (cat. 558049), incubated at 37°C for 10 minutes, permeabilized with BD Phosflow^TM Perm buffer II (cat. 558052), and incubated on ice for 30 minutes. Permeabilized cells were then washed and stained with BD Phosflow™ Alexa Fluor® 488 Mouse Anti-CREB (pS133) / ATF-1 (pS63) clone J151-21 (cat. 558435) according to the manufacturer's instructions.

[2] = design: method as in PMID 19505822; conditions: cited from earlier work
[3] = design: method as in PMID 19505822; conditions: cited from earlier work; remark: listed apart in the source

| SMILES | Outcome of screen for inhibitors of cAMP efflux after dose-response validation (U937 cells) | Binding of anti-CREB (pS133) / ATF-1 (pS63) specific antibodies [1] | water-solubility [2] | bioavailability [3] |
| --- | --- | --- | --- | --- |
| C=C1C(=O)O[C@H]2[C@H]1CC/C(C)=C/CC[C@@]1(C)O[C@@H]21 [Parthenolide] | potentially active | comparable to the adenylate cyclase stimulator forskolin positive control | Poor | Poor |
| O=C1C=C2C(=CCOC2O)O1 (centres unmarked) [Patulin] | potentially active | – | – | – |
| C[C@H]1COC2=C1C(=O)C(=O)c1c2ccc2c1CCCC2(C)C [Cryptotanshinone] | potentially active | – | – | – |
| Oc1c(I)cc(Cl)c2cccnc12 [Clioquinol] | potentially active | comparable to the adenylate cyclase stimulator forskolin positive control | – | – |
